The subject of the experiment is MV-4-11 cells. Description: Gene expression microarray analysis (Affymetrix PrimeView) and GSEA. Format: cell-based, human. The settings on record: ProbeSet 11749781_s_at; LIST B. More on the design: RFU PODN (11730768_x_at) / Fold change /veh PODN (11730768_x_at) / RFU LINC00158 (11744669_a_at) / Fold change /veh LINC00158 (11744669_a_at) / RFU DUSP10 (11751237_a_at) / Fold change /veh DUSP10 (11751237_a_at) / RFU ID3 (11757404_x_at) / Fold change /veh ID3 (11757404_x_at) / RFU PLEKHG5 (11737974_s_at) / Fold change /veh PLEKHG5 (11737974_s_at) / RFU LRRC4B (11730491_at) / Fold change /veh LRRC4B (11730491_at) / RFU GIMAP4 (11747438_a_at) / Fold change /veh GIMAP4 (11747438_a_at) / RFU KRT8 (11758183_x_at) / Fold change /veh KRT8 (11758183_x_at) / RFU CNN1 (11734310_a_at) / Fold change /veh CNN1 (11734310_a_at) / RFU VPS37D (11726825_at) / Fold change /veh VPS37D (11726825_at) / RFU C10orf10 (11716522_x_at) / Fold change /veh C10orf10 (11716522_x_at) / RFU KIR2DL2 /// KIR2DL4 /// KIR2DL5A /// KIR2DL5B /// KIR2DS1 /// KIR2DS2 /// KIR2DS3 /// KIR2DS4 /// KIR3DL3 /// KIR3DL3 /// KIR3DS1 (11738374_at) / Fold change /veh KIR2DL2 /// KIR2DL4 /// KIR2DL5A /// KIR2DL5B /// KIR2DS1 /// KIR2DS2 /// KIR2DS3 /// KIR2DS4 /// KIR3DL3 /// KIR3DL3 /// KIR3DS1 (11738374_at) / RFU C1QL1 (11718748_at) / Fold change /veh C1QL1 (11718748_at) / RFU TMPRSS4 (11747572_a_at) / Fold change /veh TMPRSS4 (11747572_a_at) / RFU HAMP (11756126_x_at) / Fold change /veh HAMP (11756126_x_at) / RFU RNFT2 (11725882_a_at) / Fold change /veh RNFT2 (11725882_a_at) / RFU NR4A2 (11747474_a_at) / Fold change /veh NR4A2 (11747474_a_at) / RFU ABCC12 (11746883_a_at) / Fold change /veh ABCC12 (11746883_a_at) / RFU TMEM136 (11760407_x_at) / Fold change /veh TMEM136 (11760407_x_at) / RFU CLDN22 /// WWC2 (11732394_at) / Fold change /veh CLDN22 /// WWC2 (11732394_at) / RFU HLA-DPB1 (11760878_x_at) / Fold change /veh HLA-DPB1 (11760878_x_at) / RFU SPINT1 (11716480_a_at) / Fold change /veh SPINT1 (11716480_a_at) / RFU GAP43 (11754022_s_at) / Fold change /veh GAP43 (11754022_s_at) / RFU A4GNT (11735810_at) / Fold change /veh A4GNT (11735810_at) / RFU PRB3 (11715151_x_at) / Fold change /veh PRB3 (11715151_x_at) / RFU TUBB4B (11761932_at) / Fold change /veh TUBB4B (11761932_at) / RFU CAPN14 (11732068_a_at) / Fold change /veh CAPN14 (11732068_a_at) / RFU TMCC2 (11721928_a_at) / Fold change /veh TMCC2 (11721928_a_at) / RFU IRGQ (11745062_a_at) / Fold change /veh IRGQ (11745062_a_at) / RFU FAM174B (11720279_a_at) / Fold change /veh FAM174B (11720279_a_at) / RFU TMPRSS4 (11748680_a_at) / Fold change /veh TMPRSS4 (11748680_a_at) / RFU FAM212B (11763350_a_at) / Fold change /veh FAM212B (11763350_a_at) / RFU PLEKHG5 (11743358_a_at) / Fold change /veh PLEKHG5 (11743358_a_at) / RFU ZSCAN30 (11745921_a_at) / Fold change /veh ZSCAN30 (11745921_a_at) / RFU CMKLR1 (11741424_a_at) / Fold change /veh CMKLR1 (11741424_a_at) / RFU LOC101060620 /// MAPK8IP1 (11723275_at) / Fold change /veh LOC101060620 /// MAPK8IP1 (11723275_at) / RFU SPTSSB (11747773_x_at) / Fold change /veh SPTSSB (11747773_x_at) / RFU PRSS12 (11739890_at) / Fold change /veh PRSS12 (11739890_at) / RFU BIN1 (11741810_x_at) / Fold change /veh BIN1 (11741810_x_at) / RFU WNT11 (11732464_a_at) / Fold change /veh WNT11 (11732464_a_at) / RFU C10orf10 (11716521_a_at) / Fold change /veh C10orf10 (11716521_a_at) / RFU C5orf56 (11738089_at) / Fold change /veh C5orf56 (11738089_at) / RFU CYB561 (11721691_x_at) / Fold change /veh CYB561 (11721691_x_at) / RFU ANKRD19P (11752326_a_at) / Fold change /veh ANKRD19P (11752326_a_at) / RFU OR2T12 /// OR2T33 /// OR2T8 (11738714_s_at) / Fold change /veh OR2T12 /// OR2T33 /// OR2T8 (11738714_s_at) / RFU VCAN (11748164_a_at) / Fold change /veh VCAN (11748164_a_at) / RFU JSRP1 (11732532_at) / Fold change /veh JSRP1 (11732532_at) / RFU KRTAP10-11 (11738290_x_at) / Fold change /veh KRTAP10-11 (11738290_x_at) / RFU MYO3A (11730013_a_at) / Fold change /veh MYO3A (11730013_a_at) / RFU EBF3 (11725865_a_at) / Fold change /veh EBF3 (11725865_a_at) / RFU CAMK2N1 (11719241_x_at) / Fold change /veh CAMK2N1 (11719241_x_at) / RFU C5orf56 (11738088_a_at) / Fold change /veh C5orf56 (11738088_a_at) / RFU OLFML3 (11715873_a_at) / Fold change /veh OLFML3 (11715873_a_at) / RFU LOC100653217 /// NTM (11731650_a_at) / Fold change /veh LOC100653217 /// NTM (11731650_a_at) / RFU MAPK11 (11762145_a_at) / Fold change /veh MAPK11 (11762145_a_at) / RFU FIZ1 (11724087_x_at) / Fold change /veh FIZ1 (11724087_x_at) / RFU OASL (11726364_x_at) / Fold change /veh OASL (11726364_x_at) / RFU SOX15 (11748057_x_at) / Fold change /veh SOX15 (11748057_x_at) / RFU CD79A (11719716_a_at) / Fold change /veh CD79A (11719716_a_at) / RFU HIST1H1D (11736915_at) / Fold change /veh HIST1H1D (11736915_at) / RFU CASKIN2 (11723855_a_at) / Fold change /veh CASKIN2 (11723855_a_at) / RFU LOC730098 (11760151_x_at) / Fold change /veh LOC730098 (11760151_x_at) / RFU OR4N2 (11742367_at) / Fold change /veh OR4N2 (11742367_at) / RFU PRRT2 (11749266_a_at) / Fold change /veh PRRT2 (11749266_a_at) / RFU SNX32 (11753110_a_at) / Fold change /veh SNX32 (11753110_a_at) / RFU CDHR5 (11726645_a_at) / Fold change /veh CDHR5 (11726645_a_at) / RFU RCAN1 (11760418_a_at) / Fold change /veh RCAN1 (11760418_a_at) / RFU FAM167A (11723789_a_at) / Fold change /veh FAM167A (11723789_a_at) / RFU FAM26E (11764081_at) / Fold change /veh FAM26E (11764081_at) / RFU ISYNA1 (11749810_s_at) / Fold change /veh ISYNA1 (11749810_s_at) / RFU ACY1 (11761880_at) / Fold change /veh ACY1 (11761880_at) / RFU 11764098_at / Fold change /veh 11764098_at / RFU SAMD14 (11745864_x_at) / Fold change /veh SAMD14 (11745864_x_at) / RFU NPB (11741838_a_at) / Fold change /veh NPB (11741838_a_at) / RFU TMPRSS6 (11731388_a_at) / Fold change /veh TMPRSS6 (11731388_a_at) / RFU KRTAP10-2 (11738614_at) / Fold change /veh KRTAP10-2 (11738614_at) / RFU ARHGAP8 /// PRR5-ARHGAP8 (11727945_x_at) / Fold change /veh ARHGAP8 /// PRR5-ARHGAP8 (11727945_x_at) / RFU KRTAP5-7 /// NADSYN1 (11734609_at) / Fold change /veh KRTAP5-7 /// NADSYN1 (11734609_at) / RFU RASL12 (11751679_a_at) / Fold change /veh RASL12 (11751679_a_at) / RFU CDKN2B (11736163_a_at) / Fold change /veh CDKN2B (11736163_a_at) / RFU PRF1 (11729649_at) / Fold change /veh PRF1 (11729649_at) / RFU, ZNF638 /// ZNF638-IT1 / Fold change vs veh, ZNF638 /// ZNF638-IT1 / RFU, PANK3 / Fold change vs veh, PANK3 / RFU, SH3YL1 / Fold change vs veh, SH3YL1 / RFU, ZEB2 / Fold change vs veh, ZEB2 / RFU, NRIP1 / Fold change vs veh, NRIP1 / RFU, PTTG1IP / Fold change vs veh, PTTG1IP / RFU, CAPN2 / Fold change vs veh, CAPN2 / RFU, MED14 / Fold change vs veh, MED14 / RFU, SNORA58 / Fold change vs veh, SNORA58 / RFU, C1orf63 / Fold change vs veh, C1orf63 / RFU, LRRFIP1 / Fold change vs veh, LRRFIP1 / RFU, NDUFAF7 / Fold change vs veh, NDUFAF7 / RFU, SLC12A2 / Fold change vs veh, SLC12A2 / RFU, IBTK / Fold change vs veh, IBTK / RFU, ESF1 / Fold change vs veh, ESF1 / Fold change vs veh, TMEM50B / RFU, TAOK1 / Fold change vs veh, TAOK1 / RFU, ACBD3 / Fold change vs veh, ACBD3 / RFU, TMA16 / Fold change vs veh, TMA16 / RFU, RWDD3 / Fold change vs veh, RWDD3 / RFU, BCAT1 / Fold change vs veh, BCAT1 / RFU, EDEM3 / Fold change vs veh, EDEM3 / RFU, TMEM33 / Fold change vs veh, TMEM33 / RFU, WDR75 / Fold change vs veh, WDR75 / RFU, AHCTF1 / Fold change vs veh, AHCTF1 / RFU, TFRC / Fold change vs veh, TFRC / RFU, ZDHHC17 / Fold change vs veh, ZDHHC17 / RFU, NOM1 / Fold change vs veh, NOM1 / RFU, ARL8B / Fold change vs veh, ARL8B / RFU, ZBTB11 / Fold change vs veh, ZBTB11 / RFU, TAMM41 / Fold change vs veh, TAMM41 / RFU, KIAA1704 /// LOC100996395 / Fold change vs veh, KIAA1704 /// LOC100996395 / RFU, ING1 / Fold change vs veh, ING1 / RFU, TRMT61B / Fold change vs veh, TRMT61B / RFU, FUBP3 / Fold change vs veh, FUBP3 / RFU, TP53 / Fold change vs veh, TP53 / RFU, TNKS2 / Fold change vs veh, TNKS2 / RFU, ZFP14 / Fold change vs veh, ZFP14 / RFU, ACTR2 / Fold change vs veh, ACTR2 / RFU, PPP3R1 / Fold change vs veh, PPP3R1 / RFU, PIK3R1 / Fold change vs veh, PIK3R1 / RFU, HNRNPA1 / Fold change vs veh, HNRNPA1 / RFU, RNF170 / Fold change vs veh, RNF170 / RFU, ZNF28 / Fold change vs veh, ZNF28 / RFU, RNGTT / Fold change vs veh, RNGTT / RFU, OGT / Fold change vs veh, OGT / RFU, BRD1 / Fold change vs veh, BRD1 / RFU, MARS / Fold change vs veh, MARS / RFU, ZNF655 / Fold change vs veh, ZNF655 / RFU, FAHD1 / Fold change vs veh, FAHD1 / RFU, BDP1 / Fold change vs veh, BDP1 / RFU, LRRCC1 / Fold change vs veh, LRRCC1 / RFU, ARID1A / Fold change vs veh, ARID1A / RFU, ZNF146 / Fold change vs veh, ZNF146 / RFU, ZNF330 / Fold change vs veh, ZNF330 / RFU, GPN3 / Fold change vs veh, GPN3 / RFU, C9orf123 / Fold change vs veh, C9orf123 / RFU, N4BP2L2 / Fold change vs veh, N4BP2L2 / RFU, ARFIP1 / Fold change vs veh, ARFIP1 / RFU, FAM179B / Fold change vs veh, FAM179B / RFU, BCL10 / Fold change vs veh, BCL10 / RFU, UHRF1BP1L / Fold change vs veh, UHRF1BP1L / RFU, BET1 / Fold change vs veh, BET1 / RFU, CNOT2 / Fold change vs veh, CNOT2 / RFU, ZNF268 / Fold change vs veh, ZNF268 / Fold change vs veh, ZNF507 / RFU, DGCR2 / Fold change vs veh, DGCR2 / RFU, WDSUB1 / Fold change vs veh, WDSUB1 / Fold change vs veh, HSP90B1 /// MIR3652 / RFU, ADSS / Fold change vs veh, ADSS / RFU, GK / Fold change vs veh, GK / RFU, ZNF148 / Fold change vs veh, ZNF148 / RFU, TAF9 / Fold change vs veh, TAF9 / RFU, SLC1A5 / Fold change vs veh, SLC1A5 / RFU, SLMO2 / Fold change vs veh, SLMO2 / RFU, ABCC4 / Fold change vs veh, ABCC4 / RFU, LOC101060439 /// RAP1B / Fold change vs veh, LOC101060439 /// RAP1B / RFU, RFX7 / Fold change vs veh, RFX7 / RFU, GTPBP10 / Fold change vs veh, GTPBP10 / RFU, CNEP1R1 / Fold change vs veh, CNEP1R1 / RFU, BIVM-ERCC5 /// ERCC5 / Fold change vs veh, BIVM-ERCC5 /// ERCC5 / RFU, ILF3 / Fold change vs veh, ILF3 / RFU 11762660_at / Fold change /veh 11762660_at / RFU VCAN (11757783_s_at) / Fold change /veh VCAN (11757783_s_at) / RFU DDX43 (11728927_at) / Fold change /veh DDX43 (11728927_at) / RFU KRT8 (11758188_x_at) / Fold change /veh KRT8 (11758188_x_at) / RFU NKD1 (11759106_at) / Fold change /veh NKD1 (11759106_at) / RFU SRD5A1 (11742802_a_at) / Fold change /veh SRD5A1 (11742802_a_at) / RFU TPSAB1 /// TPSB2 (11721975_s_at) / Fold change /veh TPSAB1 /// TPSB2 (11721975_s_at) / RFU GSTM3 (11746129_a_at) / Fold change /veh GSTM3 (11746129_a_at) / RFU IL23R (11737362_x_at) / Fold change /veh IL23R (11737362_x_at) / RFU TMEM51 (11727254_a_at) / Fold change /veh TMEM51 (11727254_a_at) / RFU PIWIL2 (11732686_x_at) / Fold change /veh PIWIL2 (11732686_x_at) / RFU ORM1 (11744905_x_at) / Fold change /veh ORM1 (11744905_x_at) / RFU CCDC152 (11743942_at) / Fold change /veh CCDC152 (11743942_at) / RFU ECM1 (11717891_a_at) / Fold change /veh ECM1 (11717891_a_at) / RFU IL23R (11748794_a_at) / Fold change /veh IL23R (11748794_a_at) / RFU TNFAIP8L3 (11732012_x_at) / Fold change /veh TNFAIP8L3 (11732012_x_at) / RFU MBOAT4 (11741988_at) / Fold change /veh MBOAT4 (11741988_at) / RFU 11764193_at / Fold change /veh 11764193_at / RFU TMEM53 (11763286_at) / Fold change /veh TMEM53 (11763286_at) / RFU MAGEB2 (11727129_at) / Fold change /veh MAGEB2 (11727129_at) / RFU TMEM200A (11744735_a_at) / Fold change /veh TMEM200A (11744735_a_at) / RFU CCDC152 (11751479_a_at) / Fold change /veh CCDC152 (11751479_a_at) / RFU FAM211A (11726209_a_at) / Fold change /veh FAM211A (11726209_a_at) / RFU RGS16 (11746705_a_at) / Fold change /veh RGS16 (11746705_a_at) / RFU VCAN (11755009_s_at) / Fold change /veh VCAN (11755009_s_at) / RFU RHOB (11743442_s_at) / Fold change /veh RHOB (11743442_s_at) / RFU RGS16 (11720943_a_at) / Fold change /veh RGS16 (11720943_a_at) / RFU RGS16 (11720944_at) / Fold change /veh RGS16 (11720944_at) / RFU, VPS4B / Fold change vs veh, VPS4B / RFU, CREB1 / Fold change vs veh, CREB1 / RFU, DNAJC13 / Fold change vs veh, DNAJC13 / RFU, GNAQ / Fold change vs veh, GNAQ / RFU, CDK5R1 / Fold change vs veh, CDK5R1 / RFU, ZRANB3 / Fold change vs veh, ZRANB3 / RFU, CUL4A / Fold change vs veh, CUL4A / RFU, CCNY / Fold change vs veh, CCNY / RFU, UFL1 / Fold change vs veh, UFL1 / RFU, COG3 / Fold change vs veh, COG3 / RFU, DIAPH2 / Fold change vs veh, DIAPH2 / RFU, SKA2 / Fold change vs veh, SKA2 / RFU, AFF3 / Fold change vs veh, AFF3 / RFU, LMF1 / Fold change vs veh, LMF1 / RFU, IPO11 / Fold change vs veh, IPO11 / RFU, DFFB / Fold change vs veh, DFFB / RFU, FOXP1 / Fold change vs veh, FOXP1 / RFU, CARD8 / Fold change vs veh, CARD8 / RFU, STRN3 / Fold change vs veh, STRN3 / RFU, ADK / Fold change vs veh, ADK / RFU, RASSF2 / Fold change vs veh, RASSF2 / RFU, WIPF1 / Fold change vs veh, WIPF1 / RFU, LARP1B / Fold change vs veh, LARP1B / RFU, RASA1 / Fold change vs veh, RASA1 / RFU, RB1 / Fold change vs veh, RB1 / RFU, PPFIA1 / Fold change vs veh, PPFIA1 / RFU, MAT2A / Fold change vs veh, MAT2A / RFU, CCT5 / Fold change vs veh, CCT5 / RFU, WDR92 / Fold change vs veh, WDR92 / RFU, CUX1 / Fold change vs veh, CUX1 / RFU, TTC7A / Fold change vs veh, TTC7A / RFU, TMEM135 / Fold change vs veh, TMEM135 / RFU, DEPTOR / Fold change vs veh, DEPTOR / RFU, CPM / Fold change vs veh, CPM / RFU, DNAJB6 / Fold change vs veh, DNAJB6 / RFU, CACNA2D3 / Fold change vs veh, CACNA2D3 / RFU, DTX4 / Fold change vs veh, DTX4 / RFU, TFCP2 / Fold change vs veh, TFCP2 / RFU, GMCL1 /// GMCL1P1 / Fold change vs veh, GMCL1 /// GMCL1P1 / RFU, AEBP2 / Fold change vs veh, AEBP2 / RFU, SNHG1 /// SNORD22 /// SNORD25 /// SNORD26 /// SNORD27 /// SNORD28 /// SNORD29 /// SNORD31 / Fold change vs veh, SNHG1 /// SNORD22 /// SNORD25 /// SNORD26 /// SNORD27 /// SNORD28 /// SNORD29 /// SNORD31 / Fold change (Aza/veh), C12orf56 (ProbeSet 11735607_a_at) / Fold change (ACY-1035/veh), C12orf56 (ProbeSet 11735607_a_at) / Fold change (Aza/veh), FGFR1OP (ProbeSet 11751329_s_at) / Fold change (ACY-1035/veh), FGFR1OP (ProbeSet 11751329_s_at) / Fold change (Aza/veh), VPS36 (ProbeSet 11739960_a_at) / Fold change (ACY-1035/veh), VPS36 (ProbeSet 11739960_a_at) / RFU SYPL1 (11715823_x_at) / Fold change /veh SYPL1 (11715823_x_at) / RFU IGFBP7 (11715501_s_at) / Fold change /veh IGFBP7 (11715501_s_at) / RFU REEP3 (11722064_at) / Fold change /veh REEP3 (11722064_at) / RFU IGLL1 (11728026_x_at) / Fold change /veh IGLL1 (11728026_x_at): dose or concentration left out as unconfirmed.

For `Nc1ncn([C@@H]2O[C@H](CO)[C@@H](O)[C@H]2O)c(=O)n1` [azacitidine], the “RFU, BCAT1” value stood at 11.21 RFU.
